Measurements: publication PMC5626944 (Frontiers in Pharmacology, 2017)

Test system: Glutamate, AMPA Site (Ionotropic)
Assay: NovaScreen competition binding
Details: 1 µM

With `C1=C(/c2cncnc2)CCCNCC/1` [TC299423, (E)-5-(pyrimidin-5-yl)-1,2,3,4,7,8-hexahydroazocine] the Hit was “FALSE” and the Inhibition ([3H]AMPA) was -1.26%.
